According to PubChem BioAssay AID463223 (The Scripps Research Institute Molecular Screening Center, 2010):
Active and inactive are the calls of the source. How the calls were made is not given here.

Target: Serine/threonine-protein phosphatase 5 (Homo sapiens) (UniProt P53041)
Assay: blocking PP5 removal of histone phosphate – biochemical, radiolabel, single concentration, PP5 inhibitor project, late-stage follow-up (AID 463223)
Conditions: purified PP5c, 33P-phosphohistone radiolabel assay, scintillation counting, 10 min; at 10 µM; active compounds read high

Sequence of Serine/threonine-protein phosphatase 5 (Homo sapiens) (P53041 whole entry, looked up): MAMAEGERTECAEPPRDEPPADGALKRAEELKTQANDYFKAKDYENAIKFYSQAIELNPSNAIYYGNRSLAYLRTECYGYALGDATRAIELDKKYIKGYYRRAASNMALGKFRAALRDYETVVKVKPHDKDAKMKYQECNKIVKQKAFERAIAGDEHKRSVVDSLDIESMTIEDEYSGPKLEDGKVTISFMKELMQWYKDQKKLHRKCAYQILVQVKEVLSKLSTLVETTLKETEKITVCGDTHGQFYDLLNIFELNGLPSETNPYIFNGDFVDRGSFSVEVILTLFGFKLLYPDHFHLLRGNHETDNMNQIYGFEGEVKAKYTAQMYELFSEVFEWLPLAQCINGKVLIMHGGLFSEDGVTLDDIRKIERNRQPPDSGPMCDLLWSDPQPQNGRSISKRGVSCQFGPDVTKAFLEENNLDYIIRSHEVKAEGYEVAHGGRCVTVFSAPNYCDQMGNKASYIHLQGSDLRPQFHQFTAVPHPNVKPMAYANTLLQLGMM

Q: Which inhibition does the source give for `Cc1[nH]n(-c2ccccc2)c(=O)c1C(c1ccc([N+](=O)[O-])cc1)c1c(C)[nH]n(-c2ccccc2)c1=O` here?
A: The inhibition was 3.51% (inactive).

Q: `COc1ccc(C(=O)c2nccc3cc(OC)c(OC)cc23)cc1OC` was tested. Which inhibition did it give?
A: Its inhibition is 1.93% (inactive).

Q: With `CC(=O)C(C(C)=O)C1(O)C(=O)c2ccccc2C1=O` as the molecule, how does the inhibition read?
A: The inhibition was 2.52% (inactive).

Q: `COc1ccc(NC(=O)C2C3CCC(O3)C2C(=O)O)c(OC)c1` (centres undefined) was tested. Which inhibition did it give?
A: The inhibition was 49.1%.

Q: With `O=C(O)c1cc(-c2ccc(Cl)c(Cl)c2)n(-c2ccc(F)cc2)n1` as the molecule, how does the inhibition read?
A: Its inhibition is -0.91% (inactive).

Q: `COc1cnc(-c2ccccn2)nc1Sc1ccc(Cl)cc1` was tested. Which inhibition did it give?
A: The inhibition was -3.05% (inactive).

Q: For `CC(C)(CS(=O)(=O)[O-])NC(=O)CC[N+](C)(C)CCO`, which inhibition is on record?
A: Its inhibition is 2.71% (inactive).

Q: How did the inhibition turn out when `COc1ccc2c(Cl)c(C(=O)N/N=C/c3ccc4c(c3)OCO4)sc2c1` was run?
A: The inhibition was -0.4% (inactive).

Q: How did the inhibition turn out when `Cc1ccc(C(=O)NC2(O)C(=O)c3ccccc3C2=O)cc1C` was run?
A: The inhibition was 2.14% (inactive).

Q: For `Nc1cc2nsnc2cc1Br`, which inhibition is on record?
A: The inhibition was 1.86% (inactive).

Q: With `COc1ccc(NC(=S)Nc2ccc3nsnc3c2)cc1` as the molecule, how does the inhibition read?
A: Its inhibition is -2.27% (inactive).

Q: `N#Cc1c(-c2ccc(Cl)cc2)cc(-c2cccs2)nc1SCC(=O)O` was tested. Which inhibition did it give?
A: Its inhibition is 12.1% (inactive).

Q: Which inhibition does the source give for `Cc1ccc(C(=O)NNc2cc(N3CCCC3)nc(N3CCCC3)n2)cc1` here?
A: The inhibition was 0.83% (inactive).

Q: How did the inhibition turn out when `Cc1nnc(NC(=O)C2C3C=CC(O3)C2C(=O)O)s1` (centres undefined) was run?
A: The inhibition was 16%.

Q: How did the inhibition turn out when `CCOC(=O)c1cnc(-n2nc(C)cc2C)nc1NCc1ccccc1` was run?
A: Its inhibition is 3.11% (inactive).

Q: Which inhibition does the source give for `O=C(O)C1C2CCC(O2)C1C(=O)NC1CCCCC1` (centres undefined) here?
A: Its inhibition is 45.9%.

Q: `c1ccc(-c2nccc(-c3ccc(-n4cnc5ccccc54)cc3)n2)nc1` was tested. Which inhibition did it give?
A: The inhibition was 9.23% (inactive).

Q: With `COc1ccc(OCCCC(=O)Nc2nc(-c3ccccn3)cs2)cc1` as the molecule, how does the inhibition read?
A: Its inhibition is -1.62% (inactive).

Q: Which inhibition does the source give for `COc1cnc(-c2ccccn2)nc1Sc1cccc(Cl)c1` here?
A: The inhibition was -0.66% (inactive).

Q: With `c1ccc(Nc2nc(-c3ccccn3)cs2)cc1` as the molecule, how does the inhibition read?
A: The inhibition was -1.08% (inactive).

Q: `COc1ccc(CN2C(=O)Cc3c2nc(N)c2c(N)nc(N4CCCCC4)c(C#N)c32)cc1` was tested. Which inhibition did it give?
A: Its inhibition is -2.57% (inactive).

Q: How did the inhibition turn out when `COc1cc(Br)c(C(=O)c2nccc3cc(OC)c(OC)cc23)cc1OC` was run?
A: Its inhibition is 1.9% (inactive).

Q: For `Oc1ccc(/C=N/Nc2cc(N3CCOCC3)nc(N3CCOCC3)n2)c(O)c1`, which inhibition is on record?
A: Its inhibition is 0.87% (inactive).

Q: How did the inhibition turn out when `O=C(Nc1nc(-c2ccccn2)cs1)C1CC(=O)N(c2ccc3c(c2)OCCO3)C1` (centres undefined) was run?
A: Its inhibition is -3.02% (inactive).

Q: Which inhibition does the source give for `CCOC(=O)c1nn(-c2ccc(C)cc2)c(=O)c2c(N)scc12` here?
A: Its inhibition is 0.85% (inactive).

Q: How did the inhibition turn out when `O=C1CCCC2=C1C1(O)C(=O)c3ccccc3C1(O)O2` (centres undefined) was run?
A: Its inhibition is 4.95% (inactive).

Q: `CCOC(=O)c1cnc(-n2cc(C)cn2)nc1NCc1ccc2c(c1)OCO2` was tested. Which inhibition did it give?
A: Its inhibition is -0.82% (inactive).

Q: For `CCOC(=O)C1=C(C)OC2(O)c3ccccc3C(=O)C12O` (centres undefined), which inhibition is on record?
A: The inhibition was -1.47% (inactive).

Q: `COc1ccc(Sc2nc(-c3ccccn3)ncc2OC)cc1` was tested. Which inhibition did it give?
A: The inhibition was 1.12% (inactive).

Q: For `CCn1c2ccccc2c2cc(NC(=O)COC(=O)c3ccc(NC(=O)CC#N)cc3)ccc21`, which inhibition is on record?
A: The inhibition was -0.66% (inactive).

Q: Which inhibition does the source give for `CCOc1ccc(NC(=S)Nc2ccc3nsnc3c2)cc1` here?
A: The inhibition was -0.34% (inactive).

Q: Which inhibition does the source give for `CCOC(=O)c1cnc(-n2nc(C)cc2C)nc1NCCc1ccccc1` here?
A: The inhibition was 0.06% (inactive).

Q: With `O=C(NC1(O)C(=O)c2ccccc2C1=O)c1c(Cl)cccc1Cl` as the molecule, how does the inhibition read?
A: Its inhibition is -1.34% (inactive).

Q: With `COc1cnc(-c2ccccn2)nc1Sc1ccc(C)cc1` as the molecule, how does the inhibition read?
A: The inhibition was -1.26% (inactive).

Q: `CCOC(=O)c1cnc(-n2nc(C)cc2C)nc1NC1CCCCC1` was tested. Which inhibition did it give?
A: Its inhibition is 1.15% (inactive).

Q: How did the inhibition turn out when `O=C(O)c1cc(-c2ccc(Cl)c(Cl)c2)n(-c2ccccc2)n1` was run?
A: The inhibition was 0.56% (inactive).

Q: For `COc1cnc(-c2ccccn2)nc1Sc1ccccc1Cl`, which inhibition is on record?
A: Its inhibition is 0.33% (inactive).

Q: With `CN1CCN(C(c2ccccn2)c2cc(Cl)c3cccnc3c2O)CC1` (centres undefined) as the molecule, how does the inhibition read?
A: The inhibition was -2.91% (inactive).

Q: For `O=C1Nc2ccccc2N2CCCC12` (centres undefined), which inhibition is on record?
A: The inhibition was -0.58% (inactive).

Q: For `CCOC(=O)c1sc(N2C(=O)C(O)=C(C(=O)c3ccco3)C2c2cccc([N+](=O)[O-])c2)nc1C` (centres undefined), which inhibition is on record?
A: Its inhibition is 9.04% (inactive).

Q: With `Nc1nc(-c2ccccn2)nc(N)c1Cc1ccc(Cl)cc1Cl` as the molecule, how does the inhibition read?
A: Its inhibition is -1.92% (inactive).

Q: With `O=c1[nH]c(Nc2ccccc2)cc2ccccc12` as the molecule, how does the inhibition read?
A: The inhibition was 0.47% (inactive).

Q: How did the inhibition turn out when `CCCCn1c(NC(=O)c2ccco2)c(C(=O)OCC)c2nc3ccccc3nc21` was run?
A: The inhibition was 2.8% (inactive).

Q: With `COc1cnc(-c2ccccn2)nc1Sc1ccccc1` as the molecule, how does the inhibition read?
A: Its inhibition is -1.46% (inactive).

Q: Which inhibition does the source give for `O=C(NC1(O)C(=O)c2ccccc2C1=O)c1ccccc1` here?
A: The inhibition was 1.84% (inactive).

Q: How did the inhibition turn out when `O=C(O)c1cc(-c2ccc(Cl)cc2)n(-c2cccc(Cl)c2)n1` was run?
A: The inhibition was 2.43% (inactive).

Q: With `COc1ccccc1Sc1nc(-c2ccccn2)ncc1OC` as the molecule, how does the inhibition read?
A: Its inhibition is -2.42% (inactive).

Q: Which inhibition does the source give for `Clc1ccc(-n2nnnc2-c2cnc(-c3ccccn3)nc2-c2cccs2)cc1` here?
A: The inhibition was -0.04% (inactive).

Q: For `COc1ccc(Cn2c(N)c(C(=O)NCc3ccco3)c3nc4ccccc4nc32)cc1OC`, which inhibition is on record?
A: Its inhibition is 0.41% (inactive).

Q: Which inhibition does the source give for `Cc1ccc(-n2nc(C(=O)O)cc2-c2ccc(Cl)cc2)cc1` here?
A: Its inhibition is 1.91% (inactive).

Q: For `O=C(O)c1n[nH]nc1-c1ccccc1`, which inhibition is on record?
A: Its inhibition is 31.1%.

Q: For `COc1cnc(-c2ccccn2)nc1Sc1ccc(F)cc1`, which inhibition is on record?
A: The inhibition was -3.12% (inactive).

Q: With `CCOC(=O)c1sc2nc3c(SCC(=O)O)cc(C(=O)c4cc(F)ccc4O)cn3c(=O)c2c1C` as the molecule, how does the inhibition read?
A: Its inhibition is 14.5% (inactive).

Q: Which inhibition does the source give for `COc1ccc(Cl)cc1C(=O)Nc1cccc(-c2ccc3nncn3n2)c1` here?
A: The inhibition was -1.12% (inactive).

Q: How did the inhibition turn out when `CCCN(CC1CC1)c1nc(N)c2c(N)nc(OC)cc2c1C#N` was run?
A: The inhibition was 0.96% (inactive).

Q: For `COc1cnc(-c2ccccn2)nc1Oc1cccc(Cl)c1`, which inhibition is on record?
A: Its inhibition is -1.35% (inactive).

Q: `COc1cnc(-c2ccccn2)nc1Oc1cccc(C(F)(F)F)c1` was tested. Which inhibition did it give?
A: Its inhibition is -2.17% (inactive).

Q: Which inhibition does the source give for `O=C(NC1(O)C(=O)c2ccccc2C1=O)c1ccc(C(F)(F)F)cc1` here?
A: Its inhibition is -0.52% (inactive).

Q: `Oc1ccccc1/C=N/Nc1cc(N2CCCC2)nc(N2CCCC2)n1` was tested. Which inhibition did it give?
A: Its inhibition is 3.34% (inactive).

Q: With `Oc1cccc(/C=N/Nc2cc(N3CCCC3)nc(N3CCCC3)n2)c1` as the molecule, how does the inhibition read?
A: Its inhibition is 1.73% (inactive).

Q: Which inhibition does the source give for `N#Cc1c(N2CCCC(O)C2)nc(N)c2c(N)nc3c(c12)CC(=O)N3C12CC3CC(CC(C3)C1)C2` (centres undefined) here?
A: The inhibition was -0.93% (inactive).

Q: Which inhibition does the source give for `CCCCN(CC)c1nc(N)c2c(N)nc(OCC)cc2c1C#N` here?
A: Its inhibition is 2.68% (inactive).

Q: How did the inhibition turn out when `O=S(=O)(Cc1cc(NCc2ccccc2)nc(-c2ccccn2)n1)c1ccccc1` was run?
A: The inhibition was 8.88% (inactive).

Q: How did the inhibition turn out when `CCOC(=O)c1cnc(-n2nc(C)cc2C)nc1NC(C)c1ccccc1` (centres undefined) was run?
A: Its inhibition is 0.17% (inactive).
